Reference: US11061016B2, “In vitro model for pathological or physiologic conditions” (HemoShear, LLC, priority 2012, dated 2021)
Like-named read-outs stand apart in the source and are kept apart here.

How the values were obtained:
[1] = system: endothelial cell/smooth muscle cell co-cultures; experiment: HDL in hemodynamic environment; format: cell-based; conditions: HDL at 45 μg/ml or 90 μg/ml; hemodynamic shear stress
Description: An additional component of plasma cholesterol distinct from nLDL or oxLDL is HDL. […] HDL was then added to the upper volume at a concentration of 45-1,000 μg/ml. This broad range reflects the broad range of HDL concentrations that can exist within human patients. HDL concentrations in individuals at risk for vascular disease are generally less than about 300 μg/ml, while HDL concentrations in healthy individuals range from greater than about 300 μg/ml up to about 2,000 μg/ml in healthy exercising patients.
In additional experiments, endothelial cell/smooth muscle cell co-cultures plated as described above were preconditioned for 16 hours with hemodynamic shear stress. From hours 16-24 the cells were additionally primed with 0.05 ng/ml TNFα and 50 μg/ml of oxLDL (compared to a vehicle control containing 50 μg/ml nLDL) in the upper volume. At 24 hours, 45 μg/ml or 90 μg/ml HDL was added to the media in the upper volume and hemodynamic shear stress was continued for the next 24 hours (hours 24-48).

endothelial cells [2] = experiment: TNFα in hemodynamic environment: gene expression; format: cell-based; conditions: 0.1-1 ng/ml TNFα; atheroprone hemodynamic forces; not seen at same levels in static cultures
Description: Following 24 hours of shear stress preconditioning with atheroprotective or atheroprone hemodynamic forces, TNFα was added to upper volume (containing the endothelial cells) at a concentration of 0.05-1 ng/ml (see FIG. 5). This concentration of TNFα is similar to plasma concentrations of TNFα observed in patients with cardiovascular disease. Shear stress application was continued for an additional 24 hours in the presence of TNFα.

[3] = system: endothelial and smooth muscle cells; experiment: Expression of genes relevant to thrombosis; format: cell-based, Human; conditions: TNFα stimulation; both endothelial and smooth muscle cells
Description: (§1) Human endothelial cells were co-cultured with or without smooth muscle cells in the presence or absence of human-derived, region-specific hemodynamics. Endothelial cells were exposed to TNFα at various concentrations and incubated in human, platelet-free plasma supplemented by ALEXA FLUOR 488 (A488, a fluorescent dye)-labeled fibrinogen. Conversion of A488-fibrinogen to A488-fibrin and deposition on the endothelium was quantified by confocal microscopy.
FIG. 2B depicts a heat map of relative gene expression in endothelial and smooth muscle cells (grown under atheroprone or atheroprotective conditions; see FIG. 2A) of several genes relevant to thrombosis. The relative changes in gene expression of Tissue Factor (F3) and Thrombomodulin (THBD) are presented below the heat map. Atheroprone hemodynamics up-regulate Tissue Factor (F3) compared to atheroprotective shear stress. […] In addition, TNFα stimulation reduces Tissue Factor Pathway Inhibitor (TFPI) in both endothelial and smooth muscle cells.

[4] = system: Endothelial/smooth muscle cell co-cultures; experiment: Coculture thrombosis assay with shear stress, Protocol A (fibrin deposition); format: cell-based, Human; conditions: atheroprone hemodynamics vs static cultures
Description: as §1
Following 24 hours of shear stress application (atheroprone or atheroprotective), the media was supplemented with TNFα at a concentration of 0.05 ng/mL or 0.10 ng/mL and shear stress was continued for an additional 24 hours, as shown in FIG. 3A. Media was then removed from both the upper and lower chambers, and both the endothelial cells and smooth muscle cells are washed twice with PBS. Endothelial cells were then incubated for 15 minutes at 37° C. with PFP supplemented with 37.5 μg/mL ALEXA-488 human fibrinogen, 20 μg/mL corn trypsin inhibitor, and 10 mM calcium, and fixed and imaged as described above for monocultures.

[5] = system: primary human hepatocytes; conditions: 72 h
Description: Hepatocytes were then incubated with medium containing 1 mg/ml of MTT reagent (thiazolyl blue tetrazolium bromide) for 1 hour, following which the cells were lysed in DMSO to release the formazan blue dye formed. The solution was transferred to a 96 well plate and the absorbance was read at 595 nm.

primary rat hepatocytes [6] = experiment: miRNA122 assay; format: cell-based; conditions: static conditions; chlorpromazine 1 μM, 4 hours
Description: The hepatocytes were then washed with PBS and incubated with serum free hepatocyte medium with or without known toxic drug chlorpromazine (CPZ) at two different concentrations (1 μM and 10 μM) for 4 hours. Supernatants from the cells were collected and microRNA extraction was performed using the MIRNEASY serum/plasma kit (a kit for extracting microRNA, Qiagen). The cDNA was prepared by using the MISCRIPTII RT kit (a kit for preparing cDNA, Qiagen) and samples quantified using the MISCRIPT SYBR GREEN PCR kit (a kit for quantifying cDNA, Qiagen), following the manufacturer's instructions.
The hepatocytes were washed with PBS and immediately incubated with either vehicle (distilled water) or chlorpromazine (1 μM) for 4 hours. The supernatant was collected and miRNA 122 levels were measured as described above.

[7] = system: primary human hepatocytes; conditions: 1 μM chlorpromazine; controlled hemodynamic conditions relative to static controls
primary rat hepatocytes [8] = experiment: Toxicity to hepatocytes under controlled flow during Cyp induction; conditions: 50 μM dexamethasone, concentration recommended for static cultures
Description: Cytochrome p450 assays were done on day 7 using commercially available P450-GLO kits. After 4 hours the media was transferred to 96-well plates and assayed for luminescent metabolites to reflect cytochrome p450 activity.

cytochrome p450 3A = experiment: Cytochrome p450 activity assay (P450-GLO), 3A; format: in vitro ADME, rat; conditions: controlled hemodynamics; dexamethasone 02.5 μM, 48 hours; DMSO 11.64
Description: (§3) Porous membrane segments roughly 2 cm^2 in area were excised and transferred to standard 24-well plates alongside corresponding static cultures. The cells were incubated with 500 μl of hepatocyte media containing substrates from commercially available P450-GLO kits (kits for luminescent cytochrome p450 assays) at the manufacturer-recommended concentrations. After 4 hours, the media was transferred to 96-well plates and assayed for luminescent metabolites to reflect cytochrome p450 activity as per the manufacturer protocol.
(§4) After 48 hours, on day 7, segments of the porous membrane from the devices containing hepatocytes cultured under controlled hemodynamics that were roughly 2.0 cm^2 in area were excised and transferred to standard 24-well plates and treated with substrates for the Cyp p450 enzymes in parallel to corresponding static cultures treated with the different agents. Cytochrome p450 assays were done on day 7 using commercially available P450-GLO kits. After 4 hours the media was transferred to 96-well plates and assayed for luminescent metabolites to reflect cytochrome p450 activity.

[9] = system: endothelial cells and smooth muscle cells; experiment: Hypertension model gene array analysis; format: cell-based; conditions: healthy and atheroprone conditions
Description: ANG2 at a concentration of 10 nM (10.46 ng/ml) or a DMSO vehicle control (VEH) was added to the upper volume and RNA was collected for gene array analysis.
Aldosterone at a concentration of 1 mM or a vehicle control (VEH) was added to the upper volume and RNA was collected for gene array analysis

rat hepatocytes = experiment: RT-PCR of oxidative stress-related and MRP genes; conditions: controlled hemodynamic conditions
primary rat hepatocytes [10] = experiment: Biliary activity stain (CDFDA), canalicular pattern; format: cell-based; conditions: controlled hemodynamic conditions, 48 hours
Excerpt: Samples were then washed with PBS and placed on glass slide for confocal imaging.

cytochrome p450 1A/1B = experiment: Cytochrome p450 activity assay (P450-GLO), 1A/1B
Description: as §3, §4

primary rat hepatocytes [11] = experiment: Gluconeogenesis assay (AMPLEX RED glucose); format: cell-based; conditions: for Effect (% Change) on glucose levels: insulin 2 nM or glucagon 100 nM; for glucose levels: decreased by (insulin) / increased by (glucagon) / glucose levels: decreased by (insulin) / increased by further (glucagon): insulin 2 nM, glucagon 100 nM; for glucose levels: decreased by (insulin) / increased by further (glucagon): substrate glycerol
[12] = system: endothelial cells and smooth muscle cells; experiment: oxLDL in hemodynamic environment: gene array, gene, protein and cytokine expression; format: cell-based; conditions: for number of genes regulated as compared to cells treated with nLDL: atheroprone, 50 μg/ml oxLDL vs 50 μg/ml nLDL
Description: Following 16-24 hours of shear stress preconditioning with atheroprotective or atheroprone hemodynamic forces, oxLDL was added to upper volume (containing the endothelial cells) at a concentration of 10-50 μg/ml (FIG. 5). In devices not receiving oxLDL, nLDL was added to the upper volume at the same concentration and used as a vehicle control. This concentration of oxLDL is similar to plasma concentrations of oxLDL observed in patients with cardiovascular disease. Shear stress application was continued for an additional 24 hours in the presence of oxLDL.
(§2) Five different donor pairs were used to analyze the oxLDL (50 μg/ml) response compared to nLDL (50 μg/ml) within the atheroprone hemodynamic environment in endothelial cells and smooth muscle cells. […] Significant genes were considered using an FDR of 0.01. Gene expression results are reported as the relative expression of the gene as compared to the expression of β-2 microglobulin (B2M). Protein expression results are reported as the relative expression of the protein as compared to the expression of actin. Activity of NFκB was assessed using an adenovirus NFκB-luciferase (Ad-NFκB-luc) reporter infected in ECs and SMCs.

endothelial cells [13] = experiment: oxLDL and TNFα in hemodynamic environment: RT-PCR gene expression; format: cell-based; conditions: atheroprone shear stress, 50 μg/ml oxLDL without or with 0.05 ng/ml TNFα
Description: To emulate more inflammatory stages of atherosclerosis, it is desirable to combine multiple circulating factors to better emulate the complexity found within human blood vessels. […] The media in the upper volume was then exchanged for media containing 0.05 ng/ml TNFα and 50 μg/ml of oxLDL. Media containing only 50 μg/ml of nLDL was used as a control.
Following 24 hours of shear stress preconditioning with atheroprotective or atheroprone hemodynamic forces, 50 μg/ml of oxLDL and 0.05 ng/ml of TNFα were added to upper volume (containing the endothelial cells). This concentration of TNFα is similar to plasma concentrations of TNFα observed in patients with cardiovascular disease. In devices not receiving oxLDL, nLDL was added to the upper volume at the same concentration and used as a vehicle control. Shear stress application was continued for an additional 24 hours in the presence of TNF-α and oxLDL (see FIG. 5). Gene expression analysis was performed using RT-PCR.

NFκB = experiment: NFκB-luciferase reporter (Ad-NFκB-luc); format: cell-based; conditions: smooth muscle cells; oxLDL added to upper volume only
Description: as §2

[14] = No substrate, 4 hours, controlled hemodynamics
[15] = substrate Glycerol (2 mM), 4 hours
[16] = substrate Lactate/Pyruvate (20 mM/2 mM), 4 hours
[17] = substrates lactate and pyruvate
[18] = atheroprone hemodynamic environment

high-density lipoprotein [HDL]
atheroprotective and pro-inflammatory gene and protein activation [1]: activates many atheroprotective genes while blocking activation of pro-inflammatory genes and proteins

tumor necrosis factor-α [TNFα]
inflammatory response (expression of E-Selectin, ICAM, VCAM, IL8) (endothelial cells [2]): induced an inflammatory response
Tissue Factor Pathway Inhibitor (TFPI) expression [3]: reduces
lower levels of TNFα to induce fibrin deposition as compared to static cultures [4]: 100- to 200 fold

CN(C)CCCN1c2ccccc2Sc2ccc(Cl)cc21 [chlorpromazine]
toxicity ([5]; 1 μM): 30.3%
toxicity ([5]; 10 μM): 46.4%
miRNA 122 levels in the supernatants compared to vehicle controls (primary rat hepatocytes [6]): did not cause any change
upregulation of APEX nuclease gene [7]: 2.8 fold
upregulation of glutathione reductase (GSR) gene [7]: 8.3 fold
upregulation of sorbitol dehydrogenase (SORD) gene [7]: 6.9 fold
upregulation of thioredoxin reductase 1 (TXNRD1) gene [7]: 5.5 fold

C[C@@H]1C[C@H]2[C@@H]3CCC4=CC(=O)C=C[C@]4(C)[C@@]3(F)[C@@H](O)C[C@]2(C)[C@@]1(O)C(=O)CO [Dexamethasone, dexamethasone]
toxicity in the controlled flow system (primary rat hepatocytes [8]): toxic
3A response (cytochrome p450 activity normalized to ATP content) (cytochrome p450 3A): 57.53

C[C@]12CCC(=O)C=C1CC[C@@H]1[C@@H]2[C@@H](O)C[C@]2(C=O)[C@@H](C(=O)CO)CC[C@@H]12 [aldosterone]
inflammatory genes (gene array) ([9]; Aldosterone 1 mM vs vehicle): upregulated

Cc1c(C)c2c(c(C)c1O)CCC(C)(COc1ccc(CC3SC(=O)NC3=O)cc1)O2 (stereo not shown) [troglitazone]
oxidative stress-related genes and MRP3 and MRP4 genes (rat hepatocytes): upregulation
changes in the canalicular pattern (cholestatic changes) (primary rat hepatocytes [10]; troglitazone 4 uM): visibly dilated canalicular structures
changes in the canalicular pattern (cholestatic changes) (primary rat hepatocytes [10]; troglitazone 40 uM): much more prominent and extensive

Angiotensin II (DRVYIHPF; Angiotensin-2; UniProt P01019 25-32, looked up) [ANG2]
inflammatory genes (gene array) ([9]; ANG2 10 nM (10.46 ng/ml) vs DMSO vehicle): upregulated

Cc1ccc2cc3c(ccc4ccccc43)c3c2c1CC3 [3-MC, 3-Methyl Cholanthrene]
induction responses seen at lower levels under controlled hemodynamics (cytochrome p450 1A/1B; controlled hemodynamics (0.1 μM) vs static (1 μM)): 10 fold
1A/1B response (cytochrome p450 activity normalized to ATP content) (cytochrome p450 1A/1B; controlled hemodynamics, 3-MC 0.1 μM, 48 hours, DMSO 4.87): 133.06

glucagon
Effect (% Change) on glucose levels (primary rat hepatocytes [11]; [14]): +51%
glucose levels: decreased by (insulin) / increased by (glucagon) (primary rat hepatocytes [11]; absence of a substrate): 51%
Effect (% Change) on glucose levels (primary rat hepatocytes [11]; [15]): +15%
Effect (% Change) on glucose levels (primary rat hepatocytes [11]; [16]): +80%
glucose levels: decreased by (insulin) / increased by further (glucagon) (primary rat hepatocytes [11]): 15%
glucose levels: decreased by (insulin) / increased by (glucagon) (primary rat hepatocytes [11]; [17]): 80%

insulin
Effect (% Change) on glucose levels (primary rat hepatocytes [11]; [14]): −27%
glucose levels: decreased by (insulin) / increased by (glucagon) (primary rat hepatocytes [11]; absence of a substrate): 27%
Effect (% Change) on glucose levels (primary rat hepatocytes [11]; [15]): −38%
Effect (% Change) on glucose levels (primary rat hepatocytes [11]; [16]): −25%
glucose levels: decreased by (insulin) / increased by further (glucagon) (primary rat hepatocytes [11]): 38%
glucose levels: decreased by (insulin) / increased by (glucagon) (primary rat hepatocytes [11]; [17]): 25%

OCC(O)CO [Glycerol, glycerol]
change in glucose produced with substrate alone (primary rat hepatocytes [11]; Glycerol 2 mM, no hormone, 4 hours): Glycerol (+67%)
glucose produced by the hepatocytes increased by (primary rat hepatocytes [11]; substrate glycerol (2 mM) alone): 67%

oxidized low-density lipoprotein [oxLDL]
atheroprotective signaling (eNOS and KLF2) gene expression ([12]; atheroprone conditions): reduced
inflammatory genes IL8 and E-Selectin (SELE) expression ([12]; atheroprone conditions, not regulated in traditional static cultures): activate
levels of secreted cytokines (IL6, IL8, MCP-1) [12, 18]: increased
phosphorylation of atheroprotective eNOS signaling [12, 18]: reduced
number of genes regulated as compared to cells treated with nLDL ([12]; endothelial cells, 5 donors): 688 genes
number of genes regulated as compared to cells treated with nLDL ([12]; smooth muscle cells, 4 donors): 304 genes
eNOS gene expression (NOS3) (endothelial cells [13]): reduced
E-Selectin (SELE) gene expression (endothelial cells [13]; control nLDL): higher levels
NFκB signaling (luciferase reporter) (NFκB): elevated
